Experimental data published in patent US20140120232A1, “ACID TASTE/ACID SMELL-REDUCING AGENT” (T. HASEGAWA CO., LTD., priority 2011, published 2014).

Assay: Sensory evaluation of Vermont drink containing the agent
Details: ten panels
Experimental: Water was added to a mixture of 10 g of apple-cider vinegar (acetic acid: 4.8%), 3 g of honey, 7 g of fructose-glucose liquid sugar mixed with sugar, 0.02 g of citric acid, 0.002 g of trisodium citrate, and 0.1 g of a Vermont flavor (manufactured by T. Hasegawa Co., Ltd.) to give a total amount of 100 mL. To the resulting mixture was added (Z,Z)-4,7-tridecadienal as the acid taste and/or acid smell-reducing agent of the present invention in concentrations shown in the following Table 1 to give Vermont drinks containing the agent.
Sensory evaluation of each drink was carried out by ten panels. […] The piercing aroma characteristic to aldehydes is a characteristic aroma common to every aldehyde and refers to an irritant off-smell giving an image of deteriorated oils and fats, soap, metals, Houttuynia cordata, etc. The judgment of smell was performed by comparing the effects at different concentrations of the acid taste and/or acid smell-reducing agent, and a concentration giving the highest acid taste/acid smell quality was selected. […]

## CCCCC/C=C/C/C=C/C=C/C=O [(E,E,E)-2,4,7-tridecatrienal]
0.005 ppt
  A: number of panels, acid taste/acid smell extreme and cause irritation: 10
  B: number of panels, acid taste/acid smell slightly strong and slightly cause irritation: 0
  C: number of panels, acid taste/acid smell slightly unpleasant: 0
  Flavor judgment: number of panels who judged acid taste/acid smell quality the highest: 0
  N: number of panels, irritation of acid reduced to give a mild acid taste: 0
  X: number of panels, acid taste reduced but piercing odor characteristic to aldehydes unpleasant: 0
0.02 ppt
  A: number of panels, acid taste/acid smell extreme and cause irritation: 10
  B: number of panels, acid taste/acid smell slightly strong and slightly cause irritation: 0
  C: number of panels, acid taste/acid smell slightly unpleasant: 0
  Flavor judgment: number of panels who judged acid taste/acid smell quality the highest: 0
  N: number of panels, irritation of acid reduced to give a mild acid taste: 0
  X: number of panels, acid taste reduced but piercing odor characteristic to aldehydes unpleasant: 0
0.1 ppt
  A: number of panels, acid taste/acid smell extreme and cause irritation: 10
  B: number of panels, acid taste/acid smell slightly strong and slightly cause irritation: 0
  C: number of panels, acid taste/acid smell slightly unpleasant: 0
  Flavor judgment: number of panels who judged acid taste/acid smell quality the highest: 0
  N: number of panels, irritation of acid reduced to give a mild acid taste: 0
  X: number of panels, acid taste reduced but piercing odor characteristic to aldehydes unpleasant: 0
0.2 ppt
  A: number of panels, acid taste/acid smell extreme and cause irritation: 9
  B: number of panels, acid taste/acid smell slightly strong and slightly cause irritation: 1
  C: number of panels, acid taste/acid smell slightly unpleasant: 0
  Flavor judgment: number of panels who judged acid taste/acid smell quality the highest: 0
  N: number of panels, irritation of acid reduced to give a mild acid taste: 0
  X: number of panels, acid taste reduced but piercing odor characteristic to aldehydes unpleasant: 0
0.5 ppt
  A: number of panels, acid taste/acid smell extreme and cause irritation: 7
  B: number of panels, acid taste/acid smell slightly strong and slightly cause irritation: 1
  C: number of panels, acid taste/acid smell slightly unpleasant: 2
  Flavor judgment: number of panels who judged acid taste/acid smell quality the highest: 0
  N: number of panels, irritation of acid reduced to give a mild acid taste: 0
  X: number of panels, acid taste reduced but piercing odor characteristic to aldehydes unpleasant: 0
1 ppb
  A: number of panels, acid taste/acid smell extreme and cause irritation: 0
  B: number of panels, acid taste/acid smell slightly strong and slightly cause irritation: 0
  C: number of panels, acid taste/acid smell slightly unpleasant: 2
  Flavor judgment: number of panels who judged acid taste/acid smell quality the highest: 0
  N: number of panels, irritation of acid reduced to give a mild acid taste: 4
  X: number of panels, acid taste reduced but piercing odor characteristic to aldehydes unpleasant: 4
1 ppt
  A: number of panels, acid taste/acid smell extreme and cause irritation: 0
  B: number of panels, acid taste/acid smell slightly strong and slightly cause irritation: 7
  C: number of panels, acid taste/acid smell slightly unpleasant: 3
  Flavor judgment: number of panels who judged acid taste/acid smell quality the highest: 0
  N: number of panels, irritation of acid reduced to give a mild acid taste: 1
  X: number of panels, acid taste reduced but piercing odor characteristic to aldehydes unpleasant: 0
5 ppt
  A: number of panels, acid taste/acid smell extreme and cause irritation: 0
  B: number of panels, acid taste/acid smell slightly strong and slightly cause irritation: 2
  C: number of panels, acid taste/acid smell slightly unpleasant: 3
  Flavor judgment: number of panels who judged acid taste/acid smell quality the highest: 2
  N: number of panels, irritation of acid reduced to give a mild acid taste: 5
  X: number of panels, acid taste reduced but piercing odor characteristic to aldehydes unpleasant: 0
10 ppb
  A: number of panels, acid taste/acid smell extreme and cause irritation: 0
  B: number of panels, acid taste/acid smell slightly strong and slightly cause irritation: 0
  C: number of panels, acid taste/acid smell slightly unpleasant: 2
  Flavor judgment: number of panels who judged acid taste/acid smell quality the highest: 0
  N: number of panels, irritation of acid reduced to give a mild acid taste: 2
  X: number of panels, acid taste reduced but piercing odor characteristic to aldehydes unpleasant: 6
20 ppt
  A: number of panels, acid taste/acid smell extreme and cause irritation: 0
  B: number of panels, acid taste/acid smell slightly strong and slightly cause irritation: 1
  C: number of panels, acid taste/acid smell slightly unpleasant: 3
  Flavor judgment: number of panels who judged acid taste/acid smell quality the highest: 5
  N: number of panels, irritation of acid reduced to give a mild acid taste: 6
  X: number of panels, acid taste reduced but piercing odor characteristic to aldehydes unpleasant: 0
50 ppb
  A: number of panels, acid taste/acid smell extreme and cause irritation: 0
  B: number of panels, acid taste/acid smell slightly strong and slightly cause irritation: 0
  C: number of panels, acid taste/acid smell slightly unpleasant: 0
  Flavor judgment: number of panels who judged acid taste/acid smell quality the highest: 0
  N: number of panels, irritation of acid reduced to give a mild acid taste: 3
  X: number of panels, acid taste reduced but piercing odor characteristic to aldehydes unpleasant: 7
100 ppt
  A: number of panels, acid taste/acid smell extreme and cause irritation: 0
  B: number of panels, acid taste/acid smell slightly strong and slightly cause irritation: 2
  C: number of panels, acid taste/acid smell slightly unpleasant: 2
  Flavor judgment: number of panels who judged acid taste/acid smell quality the highest: 3
  N: number of panels, irritation of acid reduced to give a mild acid taste: 6
  X: number of panels, acid taste reduced but piercing odor characteristic to aldehydes unpleasant: 0
500 ppt
  A: number of panels, acid taste/acid smell extreme and cause irritation: 0
  B: number of panels, acid taste/acid smell slightly strong and slightly cause irritation: 0
  C: number of panels, acid taste/acid smell slightly unpleasant: 4
  Flavor judgment: number of panels who judged acid taste/acid smell quality the highest: 0
  N: number of panels, irritation of acid reduced to give a mild acid taste: 4
  X: number of panels, acid taste reduced but piercing odor characteristic to aldehydes unpleasant: 2
